Data from ChEMBL document CHEMBL1201862, “PubChem BioAssay data set” (2004).
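Protocol summary: plate cells (96-well), add compound at 5 concentrations, incubate 48 h, interpolate endpoints linearly. Abbreviation: GI50, concentration required for 50% inhibition of growth.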 Active and inactive are the calls of the source. No stated cut-off is given here; in the data, active = GI50 up to about 1.1 µM and inactive = higher.

Assays:
Assay in all cases: NCI anticancer screen, dose series, 48 h
ACHN = tested on: ACHN
RXF 393 = tested on: RXF 393
NCI-H226 = tested on: NCI-H226
SNB-19 = tested on: SNB-19
KM12 = tested on: KM12
SNB-75 = tested on: SNB-75
UACC-257 = tested on: UACC-257
LOX IMVI = tested on: LOX IMVI
Malme-3M = tested on: Malme-3M
SK-OV-3 = tested on: SK-OV-3
TK-10 = tested on: TK-10
SF-268 = tested on: SF-268
CCRF-CEM = tested on: CCRF-CEM
SF-539 = tested on: SF-539
SN12C = tested on: SN12C
UO-31 = tested on: UO-31
EKVX = tested on: EKVX
CAKI-1 = tested on: CAKI-1
SW-620 = tested on: SW-620
NCI-H522 = tested on: NCI-H522

Measured: GI50

S=c1nc(Nc2ccc(Br)cc2)c2c3c(sc2[nH]1)CN(N1CCc2c(sc4[nH]c(=S)nc(Nc5ccc(Br)cc5)c24)C1)CC3
inactive: ACHN 21.1 µM | RXF 393 10.2 µM | NCI-H226 20.8 µM | SNB-19 22.5 µM | KM12 21.6 µM | SNB-75 > 50 µM | UACC-257 28.6 µM | LOX IMVI 8.67 µM | Malme-3M 44.1 µM | SK-OV-3 > 50 µM | TK-10 > 50 µM | SF-268 33.7 µM | CCRF-CEM 23.9 µM | SF-539 29.3 µM | SN12C 28.4 µM | UO-31 20.1 µM | EKVX 35.2 µM | CAKI-1 > 50 µM | SW-620 16.4 µM | NCI-H522 12.8 µM

S=c1sc2cscc2s1
inactive: ACHN 19.4 µM | RXF 393 35.2 µM | NCI-H226 15.5 µM | SNB-19 21.3 µM | KM12 17.6 µM | SNB-75 16.7 µM | UACC-257 22.3 µM | LOX IMVI 39.8 µM | Malme-3M 12.6 µM | SK-OV-3 27.5 µM | TK-10 23 µM | SF-268 31.4 µM | CCRF-CEM 22 µM | SF-539 23 µM | SN12C 32.6 µM | UO-31 19.1 µM | EKVX 19.5 µM | CAKI-1 16.8 µM | SW-620 20.7 µM | NCI-H522 19.3 µM

O=C(Nc1nc2ncn(CCNCc3ccccc3)c2c(=O)[nH]1)c1ccccc1
inactive: ACHN > 100 µM | RXF 393 91 µM | NCI-H226 > 100 µM | KM12 > 100 µM | SNB-75 90.2 µM | UACC-257 > 100 µM | LOX IMVI > 100 µM | Malme-3M > 100 µM | SK-OV-3 > 100 µM | TK-10 > 100 µM | SF-268 63.8 µM | CCRF-CEM > 100 µM | SF-539 > 100 µM | SN12C > 100 µM | UO-31 50.8 µM | EKVX > 100 µM | CAKI-1 > 100 µM | SW-620 > 100 µM | NCI-H522 > 100 µM

CCN(CC)CCNCc1cc(Cl)cc2c1OCOC2
inactive: ACHN > 10 µM | RXF 393 > 10 µM | NCI-H226 > 10 µM | SNB-19 > 10 µM | KM12 > 10 µM | SNB-75 > 10 µM | LOX IMVI > 10 µM | Malme-3M > 10 µM | SK-OV-3 > 10 µM | TK-10 > 10 µM | SF-268 > 10 µM | CCRF-CEM > 10 µM | SF-539 > 10 µM | SN12C > 10 µM | UO-31 > 10 µM | EKVX > 10 µM | CAKI-1 > 10 µM | SW-620 > 10 µM | NCI-H522 > 10 µM
